In PMC3248459, “A Photocytes-Associated Fatty Acid-Binding Protein from the Light Organ of Adult Taiwanese Firefly, Luciola cerata” (PLoS ONE, 2011):
Read-outs that look alike come from different tables or passages of the source.

Experiments:
Type in all cases: binding
recombinant lcFABP [1] = molecular target: T1, recombinant lcFABP (Luciola cerata, UniProt G1FKW0); assay: ANS fluorescence titration of recombinant lcFABP
Procedure: (§1) The binding property of lcFABP to fatty acids was analyzed by a fluorescence displacement assay using 1-anilinonaphthalene-8-sulfonic acid (ANS) as fluorescent probe. This assay utilizes ANS's property of emitting intense fluorescence when bind to the hydrophobic region of protein non-covalently. The displacement of ANS from ligand binding site of FABPs by fatty acid or other hydrophobic ligand will result in the reduction of fluorescence. In this way, the apparent inhibition constants (Ki) of fatty acid or hydrophobic ligand to FABPs can be measured, [25]-[27].
Recombinant lcFABP was overexpressed in E. coli cells, and purified by a two-step chromatography for ligand binding assay. […]
Fatty acid binding of recombinant lcFABP was assessed by a competitive displacement assay using fluorescence probe ANS as described previously, [27]. F7000 fluorescence spectrophotometer (Hitachi, Tokyo, Japan) was used for measuring the ANS fluorescence signal at the emission 470 nm following excitation at 375 nm. […] The apparent dissociation constant (Kd) of ANS-lcFABP complex was measured by nonlinear regression analysis of the binding data as described previously. To evaluated the binding of fatty acids to lcFABP, 2 µM lcFABP was pre-equilibrated with 40 µM ANS for 2 min in assay buffer, and then titrated with increasing concentrations of fatty acids until the reduction of fluorescence became saturate. […]

recombinant lcFABP [2] = molecular target: T1, recombinant lcFABP; assay: fluorescence (ANS) displacement assay with fatty acids; details: for binding strength of lcFABP to ligand (in words): ANS displacement assay, recombinant lcFABP
Procedure: as §1
Recombinant lcFABP was overexpressed in E. coli cells, and purified by a two-step chromatography for ligand binding assay. […] After that, the binding of fatty acid to lcFABP was examined by a competitive displacement titration. […] Conversely, the lcFABP binds moderately to saturated dodecanoic acid (C12:0), monounsaturated oleic acid (C18:1) and polyunsaturated arachidonic acid (C20:4), and poorly to the saturated capric acid (C10:0). These binding studies confirmed that the recombinant lcFABP is a functional protein for fatty acids binding as other reported FABPs, [16].
Fatty acid binding of recombinant lcFABP was assessed by a competitive displacement assay using fluorescence probe ANS as described previously, [27]. F7000 fluorescence spectrophotometer (Hitachi, Tokyo, Japan) was used for measuring the ANS fluorescence signal at the emission 470 nm following excitation at 375 nm. All measurements were carried out in an assay buffer contained 50 mM sodium phosphate, pH 7.5, 140 mM KCl, 5 mM β-ME at 25°C under a dim light. ANS and various fatty acids were prepared freshly in absolute ethanol before used. To evaluate ANS-lcFABP interaction, 2 µM lcFABP in a final volume of 2 ml assay buffer was titrated with 1∼2 ul of ANS from a initial concentration of 0 µM to 80 µM. The apparent dissociation constant (Kd) of ANS-lcFABP complex was measured by nonlinear regression analysis of the binding data as described previously. To evaluated the binding of fatty acids to lcFABP, 2 µM lcFABP was pre-equilibrated with 40 µM ANS for 2 min in assay buffer, and then titrated with increasing concentrations of fatty acids until the reduction of fluorescence became saturate. The apparent inhibition constant (Ki) of each fatty acid to ANS-lcFABP complex was calculated from the displacement data as described previously. All binding experiments were repeated at least three times.

recombinant lcFABP [3] = molecular target: T1, recombinant lcFABP; assay: time-dependent ANS displacement assay with D-luciferin and palmitic acid (Fig. S2)
Procedure: In this study, we also investigated whether lcFABP could bind firefly luciferin using ANS displacement assay (Fig. S2).
Fluorescence change was recorded after successively adding lcFABP (until final concentration become 2 µM at 100 s), D-luciferin (Luc; 1 µM at 200 s and 2 µM at 300 s) or palmitic acid (PA; 1 µM at 200 s and 2 µM at 300 s), and the competitive palmitic acid (2 µM at 400 s) or D-luciferin (2 µM at 400 s) to into the ANS (40 µM) containing buffer using time-dependent model. The results have been subtracted of D-luciferin's intrinsic-fluorescence. All experiments are monitored under a detected wavelength of Ex: 370 nm and Em: 450 nm to reduce the interference of D-luciferin intrinsic-fluorescence to the assay. (TIF) Click here for additional data file.

[4] = apparent inhibition constant, 2 µM lcFABP pre-equilibrated with 40 µM ANS, pH 7.5, 25°C, at least three repeats, read-out: Ki

T1 sequence (G1FKW0 entry or part of it): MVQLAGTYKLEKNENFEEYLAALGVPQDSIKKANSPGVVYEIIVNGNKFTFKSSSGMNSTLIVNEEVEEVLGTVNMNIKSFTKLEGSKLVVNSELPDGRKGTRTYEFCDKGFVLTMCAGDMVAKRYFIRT

SMILES	Ki (recombinant lcFABP [2]) [nM]	binding strength of lcFABP to ligand (in words) (recombinant lcFABP [2])	further results
O=S(=O)(O)c1cccc2cccc(Nc3ccccc3)c12 [ANS, 1-anilinonaphthalene-8-sulfonic acid]			Kd (recombinant lcFABP [1]): 11200 ± 1500 nM
CCCCC/C=C\C/C=C\C/C=C\C/C=C\CCCC(=O)O [Arachidonic acid]	1590 ± 160	moderately	
CCCCCCCCCC(=O)O [Capric acid]		poorly	Ki (recombinant lcFABP [2]; [4]): 118000 ± 6240 nM
CCCCCCCCCCCC(=O)O [Dodecanoic acid]	1670 ± 150	moderately	
CCCCCCCCCCCCCC(=O)O [Myristic acid]	640 ± 140	strongly	
CCCCCCCC/C=C\CCCCCCCC(=O)O [Oleic acid]	1000 ± 170	moderately	
CCCCCCCCCCCCCCCC(=O)O [Palmitic acid]	550 ± 120	strongly	reduction of fluorescence (recombinant lcFABP [3]; 2 µM lcFABP, 40 µM ANS, ligand added at 1-2 µM, luciferin intrinsic fluorescence subtracted, Ex 370 nm, Em 450 nm): ≤ 40%
CCCCCCCCCCCCCCCCCC(=O)O [Steric acid]		strongly	Ki (recombinant lcFABP [2]; [4]): 250 ± 10 nM
O=C(O)[C@H]1CSC(c2nc3ccc(O)cc3s2)=N1 [luciferin, D-luciferin]			interaction of lcFABP with ligand (in words) (recombinant lcFABP [3]): weakly; reduction of fluorescence (recombinant lcFABP [3]): about 12%
